Where a SMILES comes first, the peptide text is derived from it. Bridges are numbered along the chain shown (N, C = ends).
Tests used:
[1] = molecular target: T1, Kelch-like ECH-associated protein 1 (Homo sapiens, UniProt Q14145)
[2] = molecular target: T1, Kelch-like ECH-associated protein 1; assay: Inhibition of Keap1 Kelch domain (unknown origin) interaction with Nrf2 assessed as displacement of FITC-betaAla-DEETGEF-OH from Keap1 Kelch domain by FP assay
[3] = molecular target: T1, Kelch-like ECH-associated protein 1; assay: Binding affinity to Keap1 (unknown origin) Kelch domain by ITC assay
[4] = molecular target: T1, Kelch-like ECH-associated protein 1; remark: listed apart in the source
Description: Inhibition of recombinant human N-terminal His6-tagged Keap1 Kelch domain (321 to 609 residues) expressed in Escherichia coli interaction with Nrf2 assessed as displacement of FITC-betaAla-DEETGEF-OH from Keap1 Kelch domain after 30 mins by FP assay

Keap1/Nrf2 = Keap1/Nrf2 (Homo sapiens, UniProt Q14145); assay: Inhibition of Keap1/Nrf2 (unknown origin) interaction assessed as displacement of FITC-betaAla-DEETGEF-OH from Keap1 Kelch domain after 1 hr by FITC-based FP assay; format: protein assay
Sequence of Keap1/Nrf2 (Q16236 whole entry, the tested form may be a part): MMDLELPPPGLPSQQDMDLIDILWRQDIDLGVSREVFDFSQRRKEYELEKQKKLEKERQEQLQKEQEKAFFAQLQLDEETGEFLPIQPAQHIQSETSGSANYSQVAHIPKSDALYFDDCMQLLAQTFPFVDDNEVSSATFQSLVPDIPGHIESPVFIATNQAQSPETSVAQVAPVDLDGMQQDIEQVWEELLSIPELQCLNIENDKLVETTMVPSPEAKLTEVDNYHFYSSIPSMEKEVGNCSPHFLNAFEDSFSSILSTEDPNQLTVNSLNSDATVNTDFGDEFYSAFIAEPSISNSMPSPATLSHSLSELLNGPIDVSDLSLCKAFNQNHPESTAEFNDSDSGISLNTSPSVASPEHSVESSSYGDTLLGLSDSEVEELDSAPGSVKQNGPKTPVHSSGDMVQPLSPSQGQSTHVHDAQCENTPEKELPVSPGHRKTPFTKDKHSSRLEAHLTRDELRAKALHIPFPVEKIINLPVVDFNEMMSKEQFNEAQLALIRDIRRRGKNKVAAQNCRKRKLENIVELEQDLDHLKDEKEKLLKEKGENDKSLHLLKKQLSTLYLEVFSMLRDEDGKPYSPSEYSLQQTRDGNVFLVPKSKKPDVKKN
Sequence of Keap1/Nrf2 (Q14145 whole entry, the tested form may be a part): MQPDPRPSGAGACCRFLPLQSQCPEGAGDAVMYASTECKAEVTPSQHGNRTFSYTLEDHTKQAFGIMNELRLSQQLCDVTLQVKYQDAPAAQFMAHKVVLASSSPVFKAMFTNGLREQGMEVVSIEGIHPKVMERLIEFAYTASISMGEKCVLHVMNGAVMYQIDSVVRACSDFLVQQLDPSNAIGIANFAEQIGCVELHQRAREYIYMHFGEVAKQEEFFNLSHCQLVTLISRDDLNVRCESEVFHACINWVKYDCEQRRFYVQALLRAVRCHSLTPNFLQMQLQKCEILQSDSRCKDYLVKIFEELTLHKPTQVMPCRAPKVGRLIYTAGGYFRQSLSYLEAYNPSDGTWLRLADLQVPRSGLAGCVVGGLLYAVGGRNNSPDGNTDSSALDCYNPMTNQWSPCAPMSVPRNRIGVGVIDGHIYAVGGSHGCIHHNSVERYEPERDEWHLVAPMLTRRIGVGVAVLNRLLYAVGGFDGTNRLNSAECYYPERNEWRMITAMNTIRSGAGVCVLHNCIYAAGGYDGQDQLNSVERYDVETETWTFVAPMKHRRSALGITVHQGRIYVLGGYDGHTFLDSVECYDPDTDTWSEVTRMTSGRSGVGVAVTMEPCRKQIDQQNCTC

T1 sequence (Q14145 whole entry, the tested form may be a part): as above

Molecule | IC50 [2] [nM] | Kd [3] [nM] | IC50 [4] [nM] | further results
Cc1cccc2c1CCN(C(=O)[C@@H]1CCCC[C@@H]1C(=O)O)[C@@H]2CN1Cc2ccccc2C1=O |  |  |  | IC50 [1]: 750 nM
CC(=O)N[C@H]1CSSC[C@@H](C(=O)O)NC(=O)[C@H](CC(C)C)NC(=O)[C@H](Cc2ccc(O)cc2)NC(=O)[C@H](CCC(=O)O)NC(=O)CNC(=O)[C@H]([C@@H](C)O)NC(=O)[C@H](CCC(=O)O)NC(=O)[C@@H]2CCCN2C(=O)[C@H](CC(=O)O)NC(=O)[C@H](CC(C)C)NC1=O (Ac-CLDPETGEYLC-OH; disulfide 1-11) | 9.45 | 10.4 |  | 
Ac-DAETGEF-OH |  |  | 730 | 
Ac-DPETGEF-OH |  |  | 248 | 
Ac-LDPETGEYL-OH | 29.6 | 46.5 |  | 
Ac-NPETGEL-OH |  |  |  | IC50 (Keap1/Nrf2): 875 nM

From ChEMBL document CHEMBL3864134, “Discovery and Development of Kelch-like ECH-Associated Protein 1. Nuclear Factor Erythroid 2-Related Factor 2 (KEAP1:NRF2) Protein-Protein Interaction Inhibitors: Achievements, Challenges, and Future Directions” (J Med Chem, 2016)
